Assays:
AsPC-1 cells [1] = experiment: Cell growth of AsPC-1 cells (cell counting); assay type: cell-based, human; settings: 0.1 μM, 48 h; AsPC-1 cells (FIG. 9)
Description: FIG. 9. Effect of Orexin-B anti-OX1R antibodies on cell growth of AsPC-1 cells. Cells were incubated with 0.1 μM of OxB or antibodies for 48 h in culture medium and then cells were counted in order to estimate the cellular growth.
The aims of this study were: 1/ to investigate the presence of OX1R in human PAC cell lines and to analyze orexin-A effects in relation to apoptosis; 2/ to develop an in vivo heterotopic xenograft model from the cell lines expressing OX1R, for the study of tumor growth in response to Orexin-A. The expression of OX1R was studied at mRNA (RT-PCR), proteins (immunocytochemistry) and functional levels in 3 PAC cell lines (AsPC-1, HPAF-II and SW1990). The development of an animal model (heterotopic xenograft) from the cell line expressing OX1R, has allowed studying the effect of Orexin-A in tumor growth. Resected tumors were analyzed by immunohistochemistry. Only AsPC-1 cell line expresses OX1R.
The development of antibodies directed against OX1R were produced by a phage display strategy and the antibody selection was performed by using HEK and HEK stably expressing OX1R (HEK-OX1R) cell lines. […] Cells were incubated with 0.1 μM of OxB or antibodies for 48 h in culture medium and then cells were counted in order to estimate the cellular growth. […]

[2] = system: HEK stably expressing OX1R (HEK-OX1R); experiment: Cell growth of HEK-OX1R cells (cell counting); assay type: cell-based; settings: 0.1 μM, 48 h
Description: The development of antibodies directed against OX1R were produced by a phage display strategy and the antibody selection was performed by using HEK and HEK stably expressing OX1R (HEK-OX1R) cell lines. […] Cells were incubated with 0.1 μM of OxB or antibodies for 48 h in culture medium and then cells were counted in order to estimate the cellular growth. […] We have tested the ability of antibodies to inhibit the cellular growth in cancer cell lines derived from and pancreas cancer (AsPC-1 cells).

parental HPAF-II cells = experiment: Quantification of apoptotic cells by annexin V-PE labeling in parental HPAF-II cells; assay type: cell-based, human; settings: parental HPAF-II cells; NSC-87877 50 μM
Description: (§1) FIGS. 5A and B. Effect of orexin-A on apoptosis in OX1R expressing recombinant OX1R/HPAF-II cells. A, Parental HPAF-II and recombinant OX1R/HPAF-II cells were challenged with (black bars) or without (white bars) 1 μM orexin-A for 48 hr in the absence or presence of the SHP-2 protein tyrosine phosphatase inhibitor, NSC-87877 (50 μM). Apoptosis was measured by determination of annexin V-PE binding. Results are expressed as the percentage of apoptotic cells, and are the means±SE of three separate experiments. ***p<0.001; ns, non-significant; B, paraformaldehyde-fixed HPAF-II cells and recombinant OX1R/HPAF-II cells were challenged with or without (Basal) 1 μM orexin-A for 48 hr. Indirect immunostaining of activated caspase-3 in parental HPAF-II cells (left panels) and recombinant OX1R/HPAF-II cells (right panels) in the presence (bottom panels) or tabsence (top panels) of orexin-A is illustrated in B.
(§2) AsPC-1, SW 1990, HPAF-II and HPAF-II/hOX1R cells (seeded at 5×10^4 cells/well) were grown in 24-well plates for 24 hr under the culture conditions described above. The culture medium was then replaced every 24 hr with fresh medium with or without orexin-A (GL Biochemicals) at a concentration of 1 μM in the presence or absence of the SHP-2 inhibitor, NSC-87877 (50 μM) (Calbiochem, VWR International SAS, France). At the end of the treatment (48 hr), apoptotic cells were determined using the Guava Nexin™ kit (Guava Technologies, Hayward, Calif., USA), which discriminates between apoptotic and non-apoptotic cells (Rouet-Benzineb P, Rouyer-Fessard C, Jarry A, et al. Orexins Acting at Native OX1 Receptor in Colon Cancer and Neuroblastoma Cells or at Recombinant OX1 Receptor Suppress Cell Growth by Inducing Apoptosis. J Biol Chem 2004; 279:45875-86), analyzed with the Guava Personal Cell Analysis (PCA) system (Merck-Millipore, Guyancourt, France), and counted (2,000 events) (Voisin et al, 2008, as above). Results are expressed as the percentage of apoptotic phycoerythrin-labelled Annexin V (Annexin V-PE) positive cells and are the means of 3 independent analyses.

[3] = system: HPAF-II cells expressing recombinant OX1R; experiment: Quantification of apoptotic cells by annexin V-PE labeling in recombinant OX1R/HPAF-II cells; assay type: cell-based, human; settings: OX1R-expressing HPAF-II cells; NSC-87877 50 μM with 1 μM orexin-A
Description: as §1, with “in B. […]” for “in B.”
AsPC-1, SW 1990, HPAF-II and HPAF-II/hOX1R cells (seeded at 5×10^4 cells/well) were grown in 24-well plates for 24 hr under the culture conditions described above. […] Results are expressed as the percentage of apoptotic phycoerythrin-labelled Annexin V (Annexin V-PE) positive cells and are the means of 3 independent analyses.

AsPC-1 cells [4] = experiment: Quantification of apoptotic cells by annexin V-PE labeling in AsPC-1 cells; assay type: cell-based, human; settings: 48 hr; for effect of SHP-2 inhibitor on orexin-induced apoptosis: AsPC-1 cells, NSC-87877 50 μM with 1 μM orexin-A
Description: FIG. 4A-C. Effect of orexin-A on apoptosis in AsPC-1 cells. A, SHP-2 protein tyrosine phosphatase inhibitor, NSC-87877, blocks orexin-induced apoptosis. AsPC-1 cells were challenged with (black bars) or without (white bars) 1 μM orexin-A for 48 hr in the absence or presence of NSC-87877 (50 μM). Apoptosis was measured by determination of annexin V-PE binding, and results are expressed as the percentage of apoptotic cells; B and C: Indirect immunostaining of activated caspase-3 in AsPC-1 cells in the presence or absence of orexin-A. Paraformaldehyde-fixed AsPC-1 cells were challenged with (orexin-A) or without (basal) 1 μM orexin-A for 48 hr. Activated caspase-3 immunostaining is shown in B and scored in C. Results are means±SE of three separate experiments. ***p<0.001; ns, non-significant.
as §2

Molecule | inhibition of cell growth (AsPC-1 cells [1]) | reduction of HEK-OX1R cell number [2] [%] | effect of SHP-2 inhibitor on apoptosis (parental HPAF-II cells) | effect of SHP-2 inhibitor on orexin-A-induced apoptosis [3] | effect of SHP-2 inhibitor on orexin-induced apoptosis (AsPC-1 cells [4]) | effect of SHP-2 inhibitor on orexin-induced apoptosis (AsPC-1 cells [4]; listed as NSC 87877) | percentage of apoptotic cells (annexin V-PE) (AsPC-1 cells [4]; NSC 87877 (50 μM) in the absence of orexin-A) | percentage of apoptotic cells (annexin V-PE) (AsPC-1 cells [4]; NSC 87877 (50 μM) in the presence of 1 μM orexin-A)
orexin-B: 28 amino acid hypothalamic neuropeptide, SEQ ID NO:3 | able to inhibit the cell growth | 40±3 | – | – | – | – | – | –
O=S(=O)(O)c1ccc2cc(N=Nc3cc(S(=O)(=O)O)c4cccnc4c3O)ccc2c1 [NSC-87877] | – | – | no effect | totally abolished | reverse orexin-induced apoptosis | totally abolished | 4.6%±0.9 | 4.8%±0.5

— US20150140015A1, “METHODS AND PHARMACEUTICAL COMPOSITIONS FOR THE TREATMENT OF PANCREATIC CANCER” (INSERM (Institut National de la Sante et de la Recherche …, priority 2013, published 2015)
